{
  "source": "patent US10653667B2",
  "about": "“Drug for preventing, treating or preventing metastasis of giant cell tumor that occurs in bone or soft parts, chondrosarcoma, or osteosarcoma, local injection for arterial embolization, and artificial bone” (NIPPON CHEMIPHAR CO., LTD, priority 2013, dated 2020)",
  "key": {"[1]": {"system": "PPARγ expression in giant cell tumor of bone (GCTB)", "assay": "PPARγ staining of operational excision sample of GCTB patient administered with zaltoprofen", "format": "in vivo, human", "conditions": "3 tablets per day Soleton Tablet 80 for about 28 days", "experimental": "An operational excision sample of a person who had been administered with 3 tablets per day of the zaltoprofen tablets, Soleton Tablet 80 (generic name: zaltoprofen, 80 mg, Nippon Chemiphar) for about 28 days for pain due to the tumor, and then subjected to the operation, and an operational excision sample of giant cell tumor of bone excised from a patient with giant cell tumor of bone not administered with zaltoprofen (case in which tumor was excised by usual surgical operation according to standard therapy) as a control were subjected to staining of PPARγ, and expression of PPARγ was analyzed by PCR. For PCR, Hs_PPARG_1_SGQuantiTect Primer Assay (200) (QT00029841) of QIAGEN was used. Observation was performed with a fluorescence microscope (BZ-9000) of Keyence (FIG. 11)."}, "[2]": {"system": "PPARγ expression in cells of giant cell tumor of tendon sheath (GCTT)", "assay": "PPARγ immunostaining of GCTT cells", "format": "cell-based, human", "conditions": "zaltoprofen 400 μM or troglitazone 200 μM"}, "H-EMC-SS cells [3]": {"system": "H-EMC-SS cells", "assay": "Caspase 3 staining of chondrosarcoma cell line H-EMC-SS (apoptosis)", "format": "cell-based, human", "conditions": "zaltoprofen 200 μM, troglitazone 100 μM or pioglitazone 200 μM, compared with control", "experimental": "Further, in the same manner as that of Example 1, cells of the chondrosarcoma cell line were subjected to caspase 3 staining, and presence or absence of apoptosis was analyzed (FIGS. 46 and 47)."}, "[4]": {"system": "PPARγ expression in H-EMC-SS cells", "assay": "PPARγ immunostaining of chondrosarcoma cell line H-EMC-SS", "format": "cell-based, human", "conditions": "zaltoprofen 200 μM, troglitazone 100 μM or pioglitazone 200 μM"}, "SW1353 cells [5]": {"system": "SW1353 cells", "assay": "Suppression of cell proliferation of chondrosarcoma cell line SW1353 (CCK-8)", "format": "cell-based, human", "conditions": "drug at various concentrations", "from_the_text": "The H-EMC-SS cells were obtained from the Riken BioResource Center. As the SW1353 cells, those obtained from ATCC were used."}, "OUMS-27 cells": {"system": "OUMS-27 cells", "assay": "Proliferation of OUMS-27 cells cultured beforehand with or without GW9662", "format": "cell-based, human", "conditions": "GW9662 1 μM, 60 minutes beforehand", "experimental": "Cells of the human chondrosarcoma cell line, OUMS-27, were cultured in the same manner as that of Example 1 until they became sub-confluent, then GW9662 (Sigma Aldrich, M6191), which is an irreversible antagonist of PPARγ, was added to the cells at a final concentration of 1 μM, and the cells were cultured for 60 minutes."}, "SW1353 cells [6]": {"system": "SW1353 cells", "assay": "Proliferation of SW1353 cells cultured beforehand with or without GW9662", "format": "cell-based, human", "experimental": "Cells of the human chondrosarcoma cell line, SW1353, were cultured in the same manner as that of Example 1 until they became sub-confluent, then, GW9662, which is an irreversible antagonist of PPARγ, was added to the cells at a final concentration of 1 μM, and the cells were cultured for 60 minutes. Then, zaltoprofen was added to the cells at various concentrations of 100, 200, 300, and 400 μM, color development was performed with Cell. Counting Kit-8 (CCK-8, Dojindo) 72 hours thereafter, absorbance was measured at 450 nm further 3 hours thereafter, and the result was compared with the absorbance observed with adding only DMSO not dissolving GW9662 (FIG. 68)."}, "SW1353 cells [7]": {"system": "SW1353 cells", "assay": "Proliferation of SW1353 cells cultured beforehand with PPARγ siRNA or control siRNA", "format": "cell-based, human"}, "human PVNS cells": {"system": "human PVNS cells", "assay": "Proliferation of human PVNS cells cultured beforehand with PPARγ siRNA or control siRNA", "format": "cell-based", "conditions": "PPARγ siRNA 100 nM 48 hours, 100 μM rosiglitazone or 400 μM zaltoprofen"}, "SW1353 cells [8]": {"system": "SW1353 cells", "assay": "Cell migration of human chondrosarcoma cell line SW1353", "format": "cell-based", "conditions": "72 hours", "experimental": "The analysis of cell migration was performed by using a 6-well plate of TPP according to the method described in Takeuchi A, et al., Cancer Science, 104:740-749, 2013 (Low molecular weight heparin suppresses receptor for advanced glycation end products-mediated expression of malignant phenotype in human fibrosarcoma cells). Cells of the human chondrosarcoma cell line, SW1353, were cultured in the same manner as that of Example 1 until they became sub-confluent, and the cells were delaminated in a width of 1 mm using a micropipette tip (200 μl). […] Then, area of the cells migrated to the region where the cells were delaminated was measured by using Image J software (http://rsb.info.nih.gov/ij/index.html) (FIGS. 73 and 74)."}, "SW1353 cells [9]": {"system": "SW1353 cells", "assay": "Cell invasion of SW1353 cells (Matrigel Invasion Chamber)", "format": "cell-based, human", "from_the_text": "For the analysis of cell invasion, Matrigel™ Invasion Chamber (BD Bioscience, catalog number 354480), which uses Matrigel as the matrix, was used. […] FIGS. 76 and 77 show microphotographs of invaded cells fixed by immersion into a 4% paraformaldehyde solution, and stained with hematoxylin (magnification is 200 times). From the microphotographs of FIGS. 76 and 77, the patterns of the invaded cells can be understood."}, "[10]": {"system": "PPARγ expression in GCTB cultured cells", "conditions": "GCTB derived from a patient; inventors' earlier reports; cited from earlier work"}, "[11]": {"system": "GCTB cultured cells of the case 1", "conditions": "GCTB derived from a patient; inventors' earlier reports; cited from earlier work"}, "[12]": {"system": "giant cell tumor of bone (GCTB)", "conditions": "patient who had taken zaltoprofen for four weeks at 240 mg per day; inventors' earlier reports; cited from earlier work"}, "H-EMC-SS cells [13]": {"system": "H-EMC-SS cells", "conditions": "inventors' earlier reports; cited from earlier work"}, "[14]": {"system": "PPARγ expression in H-EMC-SS cells", "conditions": "inventors' earlier reports; cited from earlier work"}},
  "data": [
    {"compound": "CC(C(=O)O)c1ccc2c(c1)CC(=O)c1ccccc1S2", "note": "(stereo not shown) [zaltoprofen]", "values": [
      {"measurement": "fat cell differentiation in excision sample", "setting": "[1]", "result": "fat cell differentiation could be confirmed"},
      {"measurement": "PPARγ-expressing cells in excision sample", "setting": "[1]; vs patient not administered", "result": "PPARγ-expressing cells could be confirmed"},
      {"measurement": "expression of PPARγ (PPARγ-positive images)", "setting": "[2]", "result": "expression of PPARγ was successfully observed"},
      {"measurement": "caspase 3-positive ratio", "setting": "H-EMC-SS cells [3]", "result": "increased"},
      {"measurement": "expression of PPARγ (PPARγ-positive images)", "setting": "[4]", "result": "expression of PPARγ could be confirmed"},
      {"measurement": "suppression of cell proliferation (absorbance at 450 nm)", "setting": "SW1353 cells [5]", "result": "suppressed proliferation"},
      {"measurement": "cell proliferation-suppressing action after preincubation with GW9662", "setting": "OUMS-27 cells", "result": "reduced by GW9662"},
      {"measurement": "cell proliferation-suppressing action after preincubation with GW9662", "setting": "SW1353 cells [6]; SW1353, GW9662 1 μM, 60 minutes beforehand", "result": "markedly reduced by GW9662"},
      {"measurement": "suppression of proliferation of SW1353 cells", "setting": "SW1353 cells [6]; zaltoprofen 100, 200, 300, 400 μM, 72 hours", "result": "suppressed by zaltoprofen in a concentration-dependent manner"},
      {"measurement": "suppression of proliferation of SW1353 cells", "setting": "SW1353 cells [7]; 400 μM zaltoprofen, 24 hours", "result": "about 38%"},
      {"measurement": "cell proliferation-suppressing action when expression of PPARγ is suppressed by siRNA", "setting": "SW1353 cells [7]; SW1353, PPARγ-siRNA 100 nM 48 hours, 400 μM zaltoprofen or 100 μM rosiglitazone", "result": "substantially eliminated"},
      {"measurement": "cell proliferation-suppressing action with PPARγ siRNA", "setting": "human PVNS cells", "result": "substantially completely eliminated"},
      {"measurement": "suppression of cell migration of SW1353 cells", "setting": "SW1353 cells [8]; 400 μM zaltoprofen", "result": "about 40%"},
      {"measurement": "suppression of cell migration of SW1353 cells", "setting": "SW1353 cells [8]; all set concentrations, concentration-dependent", "result": "suppressed the cell migration"},
      {"measurement": "cell injury seen in microphotographs of invaded cells", "setting": "SW1353 cells [9]; 100 μM troglitazone, 50 μM celecoxib or 400 μM zaltoprofen, cells only sparsely existed and rolled into small balls", "result": "cell injury was realized"},
      {"measurement": "cell invasion remaining (suppressed to)", "setting": "SW1353 cells [9]; 400 μM zaltoprofen, 24 hours", "result": "lower than 20%"},
      {"measurement": "suppression of cell invasion of SW1353 cells", "setting": "SW1353 cells [9]; all set concentrations, concentration-dependent, 24 hours", "result": "suppressed the cell invasion"},
      {"measurement": "expression of PPARγ in the cells of giant cell tumor of bone", "setting": "[10]", "result": "promoted expression of PPARγ"},
      {"measurement": "differentiation of the cells into fat cells", "setting": "[11]", "result": "induced differentiation of the cells into fat cells"},
      {"measurement": "giant cell tumor of bone in patient", "setting": "[12]", "result": "giant cell tumor of bone disappeared"},
      {"measurement": "apoptosis in H-EMC-SS cells", "setting": "H-EMC-SS cells [13]", "result": "induced apoptosis"},
      {"measurement": "expression of PPARγ in H-EMC-SS cells", "setting": "[14]", "result": "promoted expression of PPARγ"}
    ]}
  ]
}
